80 compounds from patent US20070037785A1, “Novel dipeptidyl peptidase IV inhibitors used for functionally influencing different cells and treating immunological, infammatory, neuronal, and other diseases” (priority 2003, published 2007) can be followed below.

Each structure is given as a SMILES string.

The target of one assay is dipeptidyl peptidase IV (Homo sapiens, UniProt P27487). As to the kind of experiment: biochemical. The note with it: values marked with "*" are ID50 values; read-out: IC50DPIV, values marked with "*" = ID50.
Chain of dipeptidyl peptidase IV (P27487 whole entry, species assumed): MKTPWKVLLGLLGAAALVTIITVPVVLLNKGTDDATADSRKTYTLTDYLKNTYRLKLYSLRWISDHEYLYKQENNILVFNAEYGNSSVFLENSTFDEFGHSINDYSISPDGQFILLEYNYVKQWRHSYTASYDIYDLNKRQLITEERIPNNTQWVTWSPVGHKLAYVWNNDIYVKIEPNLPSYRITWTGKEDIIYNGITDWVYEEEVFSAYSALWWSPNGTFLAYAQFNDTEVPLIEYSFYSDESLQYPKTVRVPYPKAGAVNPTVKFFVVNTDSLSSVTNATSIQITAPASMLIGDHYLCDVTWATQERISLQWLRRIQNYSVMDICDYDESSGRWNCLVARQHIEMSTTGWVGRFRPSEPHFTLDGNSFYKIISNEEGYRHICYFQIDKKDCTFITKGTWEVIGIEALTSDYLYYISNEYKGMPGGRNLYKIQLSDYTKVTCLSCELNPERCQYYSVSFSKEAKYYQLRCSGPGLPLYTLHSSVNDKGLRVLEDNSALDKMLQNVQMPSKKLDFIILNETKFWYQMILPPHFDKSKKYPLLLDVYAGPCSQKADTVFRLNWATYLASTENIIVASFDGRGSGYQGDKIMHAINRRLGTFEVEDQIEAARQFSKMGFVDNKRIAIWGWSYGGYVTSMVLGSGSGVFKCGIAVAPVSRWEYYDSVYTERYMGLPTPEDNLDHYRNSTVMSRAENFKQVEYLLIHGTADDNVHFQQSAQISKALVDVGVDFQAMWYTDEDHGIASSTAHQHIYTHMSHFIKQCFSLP
Regarding `CN(C)c1ccc(N2CC(C)(C)C2=O)cc1` [D1.001], the IC50 worked out at 1.2 µM.

For the compound `O=C(Nc1ccccc1CC(=O)N1CCCNCC1)c1cccnc1Sc1ccccc1` [D1.002], the IC50 stood at 1.4 µM.

For `CCOC(=O)O/N=C(N)/C(N)=N/OC(=O)OCC` [D2.006], the IC50 stood at 133 µM.

Consider `CCOC(=O)n1ccc(C(=O)Nc2ccccn2)n1` [D2.007], for which the IC50 was found to be 148 µM.

Consider `Cc1ccccc1NC(=O)C(=O)N/N=C/c1cccc(Cl)c1` [D2.008], for which the IC50 amounted to 275 µM.

As for `CCC(=O)Oc1cccc(N2C(=O)C3C4C=CC(C3C2=O)C2C(=O)N(c3cccc(OC(=O)CC)c3)C(=O)C42)c1` (centres unmarked) [D3.045], the IC50 was determined as 4.2 µM.

As to `CC1=C(C(=O)Nc2ccccc2)C(c2ccccc2Cl)c2c(sc(C(=O)c3ccc(Cl)cc3)c2N)N1` (centres unmarked) [D3.093], the IC50 is 112 µM.

`Cc1ccc(C(=O)NC(NC(=S)Nc2sc3c(c2C(N)=O)CCCC3)C(Cl)(Cl)Cl)cc1` (centres unmarked) [D3.099]: the IC50 came to 169 µM.

For the compound `Cc1ccc(-n2c(SCC(=O)c3ccccc3)nc3sc4c(c3c2=O)CC(C(C)C)OC4)cc1` (centres unmarked) [D3.102], the IC50 was 209 µM.

Regarding `COc1ccc2nc(NC(=O)COC(=O)CN3C(=O)c4ccccc4C3=O)sc2c1` [D3.103], the IC50 came to 224 µM.

With `C=CCOC(=O)C1=CS(=O)(=O)c2ccccc21` [D3.105], the IC50 worked out at 252 µM.

`CC(=O)Oc1ccc(-n2c(=O)c3ccccc3c3ccccc3c2=O)cc1` [D3.107]: the IC50 came to 268 µM.

As for `CSc1nc2sc3c(c2c2nnc(SCc4cccc(OC(C)C)c4)n12)CC(C)(C)OC3` [D3.108], the IC50 came out at 269 µM.

Take `O=C(N/N=C/c1cc(Br)ccc1OC(=O)c1ccc([N+](=O)[O-])cc1)/C(=C\c1ccc2c(c1)OCO2)NC(=O)c1ccccc1` [D3.109]: the IC50 was 272 µM.

On to `Cc1ccccc1NC(=O)c1cc2c3c(c1)C1C=CCC1CN3CC1CC=CC21` (centres unmarked) [D3.110], for which the IC50 was 279 µM.

As to `COc1ccc(NC(=O)CSc2nnc3n2-c2sc4c(c2C(=O)C3CCc2ccccc2)CC(C)(C)OC4)cc1` (centres unmarked) [D3.111], the IC50 was determined as 284 µM.

The assay is the same for the next values; noted with them: values without "*" = IC-50; read-out: IC50DPIV.
`O=C1NCCCCC1Nc1ccc(N2C(=O)CCCC2=O)cc1[N+](=O)[O-]` (centres unmarked) [D1.003]: the IC50 was found to be 34.1 µM.

As for `COc1ccc(C(=O)CS/C2=N/CCCCCC2)cc1` [D1.004], the IC50 came to 36.5 µM.

Take `O=C1/C(=N\NC(=S)Nc2ccccc2F)c2cc(S(=O)(=O)N3CCOCC3)ccc2N1Cc1ccc(Cl)cc1` [D2.004]: the IC50 is 33.4 µM.

Take `CCOC(=O)c1n[nH]c2c1C(=O)N(c1ccc([N+](=O)[O-])cc1)C2=O` [D2.005]: the IC50 worked out at 54.5 µM.

Take `CC(C)(C)S(=O)(=O)c1ccc2nc3c(n2c1)CCCC3` [D3.003]: the IC50 is 15.6 µM.

On to `CN(C)CCNc1nc2c(c(=O)n(C)c(=O)n2C)n1Cc1ccccc1Cl` [D3.004], for which the IC50 was 7.5 µM.

Turning to `COc1cc2c(cc1OC)CC(C)(C)NC2` [D3.005], the IC50 came out at 6 µM.

As for `COC(=O)C1=C(N)N2C(=O)CSC2=C(C(=O)OC)C1` [D3.008], the IC50 is 34.1 µM.

Regarding `CCOC(=O)C1=C2SCC(=O)N2C(N)=C(C#N)C1` [D3.009], the IC50 was determined as 14.1 µM.

For the compound `Nc1nonc1-n1nnc(C(=O)NN=C2c3ccccc3-c3ccccc32)c1-c1ccccc1` [D3.011], the IC50 was 10.1 µM.

For `Cc1cccc(-n2c(=O)c3c4c(sc3n3c(SC(C)C(=O)N5CCOCC5)nnc23)COC(C(C)C)C4)c1` (centres unmarked) [D3.012], the IC50 was 10.1 µM.

As to `CCSc1nnc2n(-c3ccc(OC)cc3)c(=O)c3c4c(sc3n12)CCCC4` [D3.013], the IC50 turned out to be 10.8 µM.

Regarding `Brc1cccc(/C=N/Nc2nnc3c(n2)[nH]c2ccccc23)c1` [D3.015], the IC50 was 12.2 µM.

`O=C1c2ccccc2-c2c1[n+]([O-])c1c([n+]2[O-])CCCC1` [D3.017]: the IC50 came out at 14 µM.

Consider `O=C(Nc1ccc(O)c(-c2nc3ccccc3s2)c1)c1ccc([N+](=O)[O-])o1` [D3.018], for which the IC50 was determined as 14.4 µM.

Consider `Cc1ccc(S(=O)(=O)CNC(=S)c2ccc3ccccc3c2)cc1` [D3.019], for which the IC50 was determined as 14.5 µM.

In the case of `Cc1ccccc1N1C(=O)c2sc3nc4c(c(=O)n3c2C1=O)CCC4` [D3.020], the IC50 was 15.2 µM.

For the compound `CCCC(=O)O/N=C1\C(=O)N(c2ccccc2)c2ccccc21` [D3.021], the IC50 amounted to 15.2 µM.

`CC(C)C1Cc2c(sc3c2c(=O)n(Cc2ccccc2)c2nnc(SCC(=O)O)n32)CO1` (centres unmarked) [D3.024]: the IC50 stood at 18.9 µM.

`CCC(=O)Oc1ccc(C(=O)Nc2ccc(OCC(=O)O)cc2)cc1` [D3.025]: the IC50 is 23.8 µM.

For the compound `COc1cc2c(cc1OC)CC(C)(C)N=C2` [D3.026], the IC50 came out at 20.2 µM.

In the case of `CCCn1c(N2CCN(CC(=O)c3c(C)n(C)c4ccccc34)CC2)nc2c1c(=O)[nH]c(=O)n2C` [D3.027], the IC50 came to 15.2 µM.

`COc1cc2c(cc1OC)C13CCN4CC5=C(C6=C7CN8CCC9%10c%11cc(OC)c(OC)cc%11N%11C(=O)CC(O6)C(C7CC89)C%11%10)OC6CC(=O)N2C1C6C5CC43` (centres unmarked) [D3.029]: the IC50 came out at 22.9 µM.

Regarding `O=C1c2ccc(-c3nc4ccccc4c(=O)o3)cc2C(=O)N1c1ccc(Cc2ccc(N3C(=O)c4ccc(-c5nc6ccccc6c(=O)o5)cc4C3=O)cc2)cc1` [D3.032], the IC50 was 27.2 µM.

For the compound `Cc1nnc(SCC(=O)OCN2C(=O)c3ccccc3C2=O)[nH]1` [D3.033], the IC50 turned out to be 27.5 µM.

`N#CC1=C(N)C(C#N)(C#N)C(c2ccccc2)C2CNCC=C12` (centres unmarked) [D3.035]: the IC50 was determined as 52.3 µM.

For the compound `N#Cc1c(NC(=O)C(C(F)(F)F)C(F)(F)F)sc2c1CCC2` [D3.038], the IC50 was found to be 30.9 µM.

`COc1cc2c(cc1OC)C1(CCCC1)CN(CC#N)C2` [D3.039]: the IC50 is 31.4 µM.

As to `N#Cc1c(NC(=O)c2ccccc2)sc2c1CCCCC2` [D3.042], the IC50 is 33 µM.

Turning to `CCOC(=O)c1c(C)oc2c1c1c(c3ccccc32)OCN(C2CCS(=O)(=O)C2)C1` (centres unmarked) [D3.046], the IC50 came out at 34.2 µM.

As to `CCC(=O)Oc1ccc2c(c1)OC1(OC(C)=O)OC(C)CC1=C2C` (centres unmarked) [D3.047], the IC50 was 37.4 µM.

As for `O=C(Nc1c[nH]c(=O)[nH]c1=O)c1ccc2c(c1)C(=O)N(c1ccc(C(=O)c3ccccc3)cc1)C2=O` [D3.048], the IC50 stood at 38.2 µM.

Take `N#Cc1c(NC(=O)C(C(F)(F)F)C(F)(F)F)sc2c1CCCC2` [D3.049]: the IC50 worked out at 39.5 µM.

Turning to `O=C1c2ccccc2C(=O)N1c1cccc(-c2csc(N3N=C(c4cccc([N+](=O)[O-])c4)CC3c3ccc(F)cc3)n2)c1` (centres unmarked) [D3.050], the IC50 was determined as 39.8 µM.

Take `O=C1C(Cc2c[nH]c3ccccc23)NC(=S)N1c1ccccc1` (centres unmarked) [D3.051]: the IC50 is 40.2 µM.

As to `COC(=O)C1=C2SCC(=O)N2C(N)=C(C#N)C1` [D3.052], the IC50 was 40.5 µM.

For the compound `CN1CCN(c2nc3c(c(=O)n(C)c(=O)n3C)n2Cc2cccc(F)c2)CC1` [D3.054], the IC50 was found to be 41.2 µM.

For `O=C(/C=C/c1ccco1)Nc1ccc2oc(-c3cccc(Cl)c3Cl)nc2c1` [D3.055], the IC50 stood at 42.4 µM.

As to `N#CC1=C(N)C(C#N)(C#N)C(c2ccccc2)C2CNCC=C12` (centres unmarked) [D3.056], the IC50 was 42.7 µM.

Take `O=C1NC23NC(=O)NC2(N1)c1ccccc1-c1ccccc13` (centres unmarked) [D3.057]: the IC50 is 43.1 µM.

With `Cn1c(=O)[nH]c(=O)c2c1nc(NCCO)n2Cc1ccccc1Cl` [D3.058], the IC50 worked out at 44 µM.

`CC(C)(C)C(=O)N1CCN(c2cc(Cl)nc(SCC(=O)N3CCN(Cc4ccc5c(c4)OCO5)CC3)n2)CC1` [D3.059]: the IC50 stood at 45.6 µM.

As for `CCC(=O)O/N=C(/C)c1cc2ccccc2oc1=O` [D3.060], the IC50 was 45.9 µM.

For the compound `Cc1nc2c(sc(=S)n2C)c(=O)[nH]1` [D3.061], the IC50 was 46 µM.

As for `CC(C)c1ccc2c(c1)[C@@H]1C=CC[C@@H]1[C@H](c1ccc(C(=O)O)cc1)N2` [D3.062], the IC50 stood at 46.4 µM.

With `Cn1c(=O)n(Cc2ccccc2)c(=O)c2c1nc(N1CCNCC1)n2Cc1ccccc1` [D3.064], the IC50 turned out to be 48.3 µM.

Take `CC(C)C1Cc2c(sc3nc(SCC(=O)c4ccccc4)n(Cc4ccccc4)c(=O)c23)CO1` (centres unmarked) [D3.067]: the IC50 was 52.4 µM.

Take `CCOC(=O)c1c(N2C(=O)C3ON(c4ccccc4)C(c4ccc([N+](=O)[O-])cc4)C3C2=O)sc2c1CCCC2` (centres unmarked) [D3.069]: the IC50 came out at 54.1 µM.

Turning to `Nc1ccc2c(c1)C/C(=C\c1ccco1)C2=O` [D3.070], the IC50 worked out at 27.5 µM.

With `COc1cc(C)ccc1N(CCCN1C(=O)c2cccc3cccc(c23)C1=O)C(=O)c1cc(C)cc(C)c1` [D3.073], the IC50 was determined as 55.4 µM.

For `CC(C)C1=CC23CCC4C(C)(C(=O)O)CCCC4(C)C2CC1C1C(=O)N(c2cccc(O)c2)C(=O)C13` (centres unmarked) [D3.074], the IC50 is 55.4 µM.

As for `COc1cc2c(cc1OC)CC1(CCCC1)N=C2` [D3.077], the IC50 was 59.1 µM.

`CC(=O)Oc1cc2oc(=O)cc(C)c2cc1OC(C)=O` [D3.078]: the IC50 was 59.2 µM.

Take `CC1CCc2c(sc(NC(=O)C(C(F)(F)F)C(F)(F)F)c2C#N)C1` (centres unmarked) [D3.080]: the IC50 came to 59.8 µM.

Regarding `O=C(N/N=C/c1cc(Br)c(O)c(Br)c1O)/C(=C\c1ccc2c(c1)OCO2)NC(=O)c1ccccc1` [D3.081], the IC50 was 60 µM.

With `Cn1cnnc1SCC(=O)OCN1C(=O)c2ccccc2C1=O` [D3.083], the IC50 was found to be 62.4 µM.

Turning to `CSc1nc2sc3c(c2c(=O)n1-c1cccc(C)c1)CC(C)(C)OC3` [D3.088], the IC50 turned out to be 80.6 µM.

Regarding `CNc1nc2c(c(=O)[nH]c(=O)n2C)n1Cc1ccccc1Cl` [D3.091], the IC50 came out at 27.8 µM.

In the case of `CC(C)(C)C1CCc2c(sc(NC(=O)C(C(F)(F)F)C(F)(F)F)c2C#N)C1` (centres unmarked) [D3.092], the IC50 was determined as 101 µM.

In the case of `Cc1ccc2nc(-c3ccc(N4C(=O)CC(N5CCC(C)CC5)C4=O)cc3)sc2c1` (centres unmarked) [D3.094], the IC50 was 116 µM.

With `O=[N+]([O-])c1ccc(C2OCN3COCC23)cc1` (centres unmarked) [D3.095], the IC50 was determined as 42.4 µM.

For the compound `Cc1cc(-c2ccc(/C=C(\C#N)c3nc4ccccc4[nH]3)o2)ccc1[N+](=O)[O-]` [D3.096], the IC50 worked out at 138 µM.

Consider `CCOc1ccc(/C=N/NC(=O)c2cc(-c3c(OC)ccc4ccccc34)n[nH]2)cc1` [D3.100], for which the IC50 came to 56.3 µM.

For `O=C1CCCC(=O)N1c1ccc(N2CCc3ccccc3C2)c([N+](=O)[O-])c1` [D3.104], the IC50 was found to be 28.8 µM.
